Here are results for 1 compound from article PMC10296061, “Inhibition of the Mitochondrial Carnitine/Acylcarnitine Carrier by Itaconate through Irreversible Binding to Cysteine 136: Possible Pathophysiological Implications” (Biomolecules, 2023).

As usually defined, the IC50 is the point on the concentration scale where inhibition reaches its midpoint.

In test [1] the target is T1, recombinant ORC (hORC1) (Homo sapiens, UniProt Q9Y619).
T1 construct: encodes a full-length hORC1 protein with a His6 tag before the termination codon; His6 (C); made in house; host or cells: E. coli C0214
T1 sequence (Q9Y619 1-301): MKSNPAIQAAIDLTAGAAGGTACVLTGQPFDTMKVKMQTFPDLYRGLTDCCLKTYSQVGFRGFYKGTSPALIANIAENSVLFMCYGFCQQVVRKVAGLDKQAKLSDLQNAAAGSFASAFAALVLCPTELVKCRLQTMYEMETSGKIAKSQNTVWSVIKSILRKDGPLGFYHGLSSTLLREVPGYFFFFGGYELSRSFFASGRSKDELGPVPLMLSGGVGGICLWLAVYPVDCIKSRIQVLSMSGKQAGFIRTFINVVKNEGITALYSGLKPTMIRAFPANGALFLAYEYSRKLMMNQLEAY
The test can be described thus: [3H]ornithine transport in proteoliposomes reconstituted with recombinant ORC. Type of test: biochemical. To be noted: read-out: IC50 for itaconate inhibition. The source says: The 903 bp cDNA coding for the hORC1Wild Type (WT) protein was amplified from the Mega Man Human Transcriptome Library with the forward and reverse primers 5′-[…]-3′ and 5′-[…]-3′, containing the NdeI and HindIII sites, respectively. The amplified cDNA was then cloned in the NdeI/HindIII sites of the pET-21a(+) expression vector. The resulting recombinant plasmid, defined as pET-21a(+)-hORC1, encodes a full-length hORC1 protein with a His6 tag before the termination codon. […]
(§1) To test the transport activity of the CAC, 550 μL of proteoliposomes was passed through a Sephadex G-75 column to remove the external substrate. […] Transport rates were measured in 10 min, i.e., within the initial linear range of the time course, at 25 °C. After terminating the transport reaction, the external substrate was removed by chromatography on the Sephadex G-75 column, and the intraliposomal radioactivity was measured. […]
Figure 3 Identification of residue responsible for itaconate inhibition. […] Transport activity of the WT (○), C136A (●), C155A (Δ), C23V/C58V/C89S/C155V/C283S (▲), and C23V/C58V/C89S/C136V/C155V/C283S (□) was measured by adding 0.1 mM [^3H]carnitine after treatment by itaconate at the indicated concentrations. […] Transport activity was measured by adding 0.1 [^3H]ornithine, respectively, as described in Materials and Methods. […]

For test [2], the target named is T2, native ornithine/citrulline carrier (ORC, SLC25A15) (Rattus norvegicus, UniProt A0A0G2K309).
T2 construct: from tissue; host or cells: rat liver mitochondria
T2 sequence (A0A0G2K309 1-301): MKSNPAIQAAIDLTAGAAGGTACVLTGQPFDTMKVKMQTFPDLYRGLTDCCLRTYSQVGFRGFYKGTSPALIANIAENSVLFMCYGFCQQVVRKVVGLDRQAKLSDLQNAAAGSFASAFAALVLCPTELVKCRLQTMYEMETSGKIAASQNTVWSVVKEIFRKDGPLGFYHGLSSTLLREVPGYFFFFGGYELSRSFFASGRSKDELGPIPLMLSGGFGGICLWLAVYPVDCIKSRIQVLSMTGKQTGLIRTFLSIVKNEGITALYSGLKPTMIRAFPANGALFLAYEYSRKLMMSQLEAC
The test can be described thus: [3H]ornithine transport in proteoliposomes reconstituted with native ORC. It is filed as biochemical. The following applies: read-out: IC50 for itaconate inhibition.
From the text: As previously described, recombinant CAC (WT and mutants) and ORC1 proteins were used for proteoliposome formation. For experiments with native CAC, ORC1, or ANT proteins, rat liver mitochondria, or HeLa cell mitochondria, the latter for the CAC alone, were first purified using the standard procedure of cell disruption and differential centrifugation. Then proteins were extracted using 3% Triton X-100 and reconstituted as described for the recombinant proteins. The concentration of intraliposomal carnitine and ornithine was 15 mM and 30 mM, respectively, in all samples.
as §1
Figure 3 Identification of residue responsible for itaconate inhibition. […] Transport activity of the WT (○), C136A (●), C155A (Δ), C23V/C58V/C89S/C155V/C283S (▲), and C23V/C58V/C89S/C136V/C155V/C283S (□) was measured by adding 0.1 mM [^3H]carnitine after treatment by itaconate at the indicated concentrations. […]

Turning to `C=C(CC(=O)O)C(=O)O` [itaconate], the IC50 came to 44 ± 6 mM in test [1] and 52 ± 5.5 mM in test [2].
